According to patent publication US11285219B2, “Peptide-oligourea hybrid compounds” (UREKA SARL, priority 2019, dated 2022):
Numbered stars: 1 amine (or outer) side, 2 acyl side, 3 side chain; on linkers, the order of the positions; unused ones are H or OH. Bridge positions count the residues as written; N and C are the ends. Peptide text beside a SMILES is read from it. I, II: the chains in the order shown. X4 = C[C@@H](CNC(=O)[*:1])NC(=O)NC[C@H](CCC(=O)O)NC(=O)NC[C@H](Cc1ccc(O)cc1)N[*:2]; X1 = C[C@@H](CNC(=O)N[C@@H](C)CNC(=O)[*:2])NC(=O)NC[C@H](C)N[*:1]; X6 = CC(CNC(=O)NC(C)CNC(=O)[*:1])NC(=O)NCC(C)N[*:2]; X8 = CC(CNC(=O)NC(C)CNC(=O)[*:2])NC(=O)NCC(C)N[*:1]

Columns and labels:
[1] = target: T1, mouse GLP-1 receptor endogenously expressed in βTC6 cells (Mus musculus, UniProt O35659); experiment: cAMP production functional assay (HTRF), agonist activity at GLP-1R; type: cell-based; conditions: for Potency (%), percentage of potency compare to GLP-1-G^2: cAMP production, Table 1
T1 construct: host or cells: βTC6 cells
T1 sequence (O35659 22-463): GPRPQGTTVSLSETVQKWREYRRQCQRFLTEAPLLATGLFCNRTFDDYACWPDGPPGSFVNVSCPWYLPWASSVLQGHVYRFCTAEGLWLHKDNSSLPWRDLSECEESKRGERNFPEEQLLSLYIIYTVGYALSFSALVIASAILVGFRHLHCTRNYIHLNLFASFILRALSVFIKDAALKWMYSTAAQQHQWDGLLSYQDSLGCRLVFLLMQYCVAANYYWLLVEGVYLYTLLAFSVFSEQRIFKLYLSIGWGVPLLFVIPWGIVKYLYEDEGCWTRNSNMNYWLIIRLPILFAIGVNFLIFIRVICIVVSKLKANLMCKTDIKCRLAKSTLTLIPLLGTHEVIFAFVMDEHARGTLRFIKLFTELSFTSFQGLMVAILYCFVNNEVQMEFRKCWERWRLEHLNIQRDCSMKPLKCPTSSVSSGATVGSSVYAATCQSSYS
Experimental: The agonistic activity of these hybrids were obtained by functional assays using cells expressing the […] and by measuring the receptor-mediated cAMP produced (see supporting information).
In vitro pharmacology (EC50). […] Following incubation, the cells were lysed and the fluorescence acceptor (D2-labeled cAMP) and fluorescence donor (anti-cAMP antibody labeled with europium cryptate) were added.

normal mice (C57BL/6J) = experiment: Blood glucose experiment in healthy mice; type: in vivo, mouse; set-up: key to In vivo activity (indicator): + = active; +++: + + + = more active
Experimental: In the first study, we evaluated the effect of the analogues on the blood glucose concentration of normal mice (FIG. 4). The fed mice were treated with the analogues and their blood glucose concentration was monitored before and after dosing for 6 h. […] Indeed, a decrease of blood glucose concentration is observed after 30 min and the effect is preserved for 4 h after dosing.
Blood glucose experiment in healthy mice. After the acclimation period (at least 5 days), mice (male C57BL/6J mice (Charles River laboratories) (8 weeks old, 20-25 g)) were randomized into 10 groups (n=3/group) according to their body weight. They were acutely treated via i.v. route at 10 AM (5 μg/mouse). Blood glucose was measured before dosing and at 30 min, 1, 2, 4, 6 h after dosing in fed conditions.

## CC[C@H](C)[C@H](NC(=O)[C@H](Cc1ccccc1)NC(=O)[C@H](CCC(=O)O)NC(=O)[C@H](CCCCN)NC(=O)[C@H](C)NC(=O)[C@H](C)NC(=O)NC[C@H](C)NC(=O)NC[C@H](CCC(=O)O)NC(=O)NC[C@H](Cc1ccc(O)cc1)NC(=O)[C@H](Cc1ccc(O)cc1)NC(=O)[C@H](CO)NC(=O)[C@H](CO)NC(=O)[C@@H](NC(=O)[C@H](CC(=O)O)NC(=O)[C@H](CO)NC(=O)[C@@H](NC(=O)[C@H](Cc1ccccc1)NC(=O)[C@@H](NC(=O)CNC(=O)[C@H](CCC(=O)O)NC(=O)CNC(=O)[C@@H](N)Cc1c[nH]cn1)[C@@H](C)O)[C@@H](C)O)C(C)C)C(=O)N[C@@H](C)C(=O)N[C@@H](Cc1c[nH]c2ccccc12)C(=O)N[C@@H](CC(C)C)C(=O)N[C@H](C(=O)N[C@@H](CCCCN)C(=O)NCC(=O)N[C@@H](CCCNC(=N)N)C(=O)NCC(N)=O)C(C)C [Compound 9, GG2[Y^UE^UA^U]^14-17] (I: AAKEFIAWLVKGRG-NH2 / II: H-HGEGTFTSDVSSY; linker I:N-II:C via X4)
[1]; Table 2
  Potency (%), percentage of potency (cAMP production) compared to GLP-1-G^2: 135%
[1]
  Potency (%), percentage of potency compare to GLP-1-G^2: 135%
[1]; receptor-mediated cAMP production, βTC6 cells, read-out: EC50 (nM), GLP-1R potency
  EC50: 0.18 nM
Normal mice (C57BL/6J); blood glucose, mice, i.v.
  In vivo activity (indicator): +
Normal mice (C57BL/6J); fed normal mice, 5 μg/mouse i.v., monitored 6 h
  effect on blood glucose concentration: efficacy but no improvement

## CC[C@H](C)[C@H](NC(=O)NCC(C)NC(=O)NCC(C)NC(=O)NCC(C)NC(=O)[C@H](C)NC(=O)[C@H](CCC(N)=O)NC(=O)CNC(=O)[C@H](CCC(=O)O)NC(=O)[C@H](CC(C)C)NC(=O)[C@H](Cc1ccc(O)cc1)NC(=O)[C@H](CO)NC(=O)[C@H](CO)NC(=O)[C@@H](NC(=O)[C@H](CC(=O)O)NC(=O)[C@H](CO)NC(=O)[C@@H](NC(=O)[C@H](Cc1ccccc1)NC(=O)[C@@H](NC(=O)CNC(=O)[C@H](CCC(=O)O)NC(=O)CNC(=O)[C@@H](N)Cc1c[nH]cn1)[C@@H](C)O)[C@@H](C)O)C(C)C)C(=O)N[C@@H](C)C(=O)N[C@@H](Cc1c[nH]c2ccccc12)C(=O)N[C@@H](CC(C)C)C(=O)N[C@H](C(=O)N[C@@H](CCCCN)C(=O)NCC(=O)N[C@@H](CCCNC(=N)N)C(=O)NCC(N)=O)C(C)C (some centres unmarked) [Compound 15, GG2[A^UA^UA^U]^19-22] (I: H-HGEGTFTSDVSSYLEGQA / II: IAWLVKGRG-NH2; linker I:C-II:N via X8)
[1]
  Potency (%), percentage of potency compare to GLP-1-G^2: <0.01%

## CC[C@H](C)[C@H](NC(=O)[C@H](Cc1ccccc1)NC(=O)[C@H](CCC(=O)O)NC(=O)[C@H](CCCCN)NC(=O)[C@H](C)NC(=O)[C@H](C)NC(=O)[C@H](CCC(N)=O)NC(=O)NCC(C)NC(=O)NCC(C)NC(=O)NCC(C)NC(=O)[C@H](CO)NC(=O)[C@H](CO)NC(=O)[C@@H](NC(=O)[C@H](CC(=O)O)NC(=O)[C@H](CO)NC(=O)[C@@H](NC(=O)[C@H](Cc1ccccc1)NC(=O)[C@@H](NC(=O)CNC(=O)[C@H](CCC(=O)O)NC(=O)CNC(=O)[C@@H](N)Cc1c[nH]cn1)[C@@H](C)O)[C@@H](C)O)C(C)C)C(=O)N[C@@H](C)C(=O)N[C@@H](Cc1c[nH]c2ccccc12)C(=O)N[C@@H](CC(C)C)C(=O)N[C@H](C(=O)N[C@@H](CCCCN)C(=O)NCC(=O)N[C@@H](CCCNC(=N)N)C(=O)NCC(N)=O)C(C)C (some centres unmarked) [Compound 7, GG2[A^UA^UA^U]^13-16] (I: QAAKEFIAWLVKGRG-NH2 / II: H-HGEGTFTSDVSS; linker I:N-II:C via X6)
[1]
  Potency (%), percentage of potency compare to GLP-1-G^2: <0.01%

## CC[C@H](C)[C@H](NC(=O)[C@H](Cc1ccccc1)NC(=O)[C@H](CCC(=O)O)NC(=O)[C@H](CCCCN)NC(=O)[C@H](C)NC(=O)NC[C@H](C)NC(=O)NC[C@H](C)NC(=O)NC[C@H](C)NC(=O)[C@H](CC(C)C)NC(=O)[C@H](Cc1ccc(O)cc1)NC(=O)[C@H](CO)NC(=O)[C@H](CO)NC(=O)[C@@H](NC(=O)[C@H](CC(=O)O)NC(=O)[C@H](CO)NC(=O)[C@@H](NC(=O)[C@H](Cc1ccccc1)NC(=O)[C@@H](NC(=O)CNC(=O)[C@H](CCC(=O)O)NC(=O)CNC(=O)[C@@H](N)Cc1c[nH]cn1)[C@@H](C)O)[C@@H](C)O)C(C)C)C(=O)N[C@@H](C)C(=O)N[C@@H](Cc1c[nH]c2ccccc12)C(=O)N[C@@H](CC(C)C)C(=O)N[C@H](C(=O)N[C@@H](CCCCN)C(=O)NCC(=O)N[C@@H](CCCNC(=N)N)C(=O)NCC(N)=O)C(C)C [Compound 10, GG2[A^UA^UA^U]^15-18] (I: H-HGEGTFTSDVSSYL / II: AKEFIAWLVKGRG-NH2; linker I:C-II:N via X1)
[1]
  Potency (%), percentage of potency compare to GLP-1-G^2: 0.2%
